# Experimental data published in ChEMBL document CHEMBL4270663, “6-Benzhydryl-4-amino-quinolin-2-ones as Potent Cannabinoid Type 1 (CB1) Receptor Inverse Agonists and Chemical Modifications for Peripheral Selectivity” (J Med Chem, 2018).
# Active and inactive are the calls of the source. The rule behind the calls is not given here.
# Key:
# [1] = Drug uptake in brain of diet-induced obese C57BL/6J mouse model at 1 mg/kg, po administered as daily dose measured at 2 hrs post last dose on day 2; type: ADME, organism-based; conditions: in vivo
# [2] = Ratio of drug level in C57BL/6J mouse brain to plasma at 20 mg/kg, po measured after 4 hrs; type: ADME, organism-based; conditions: read-out: BPR
# Mus musculus [3] = assay: Antiobesity activity in diet induced obese C57BL/6J mouse model assessed as decrease in total cholesterol level at 3 to 10 mg/kg, po administered as daily dose measured at day 26 post last dose; type: functional, organism-based
# [4] = Drug uptake in plasma of diet-induced obese C57BL/6J mouse model at 1 mg/kg, po administered as daily dose measured at 2 hrs post last dose on day 22; type: ADME, organism-based
# [5] = Metabolic stability in mouse liver microsomes assessed as parent compound remaining at 1 uM after 10 mins in presence of NADPH; type: ADME, microsome; conditions: read-out: Stability
# Cytochrome P450 1A2 = biological target: T1, Cytochrome P450 1A2 (Homo sapiens, UniProt P05177); assay: Inhibition of CYP1A2 in human liver microsomes using phenacetin as substrate after 10 to 30 mins by LC/MS analysis; type: ADME
# T1 sequence (P05177 whole entry): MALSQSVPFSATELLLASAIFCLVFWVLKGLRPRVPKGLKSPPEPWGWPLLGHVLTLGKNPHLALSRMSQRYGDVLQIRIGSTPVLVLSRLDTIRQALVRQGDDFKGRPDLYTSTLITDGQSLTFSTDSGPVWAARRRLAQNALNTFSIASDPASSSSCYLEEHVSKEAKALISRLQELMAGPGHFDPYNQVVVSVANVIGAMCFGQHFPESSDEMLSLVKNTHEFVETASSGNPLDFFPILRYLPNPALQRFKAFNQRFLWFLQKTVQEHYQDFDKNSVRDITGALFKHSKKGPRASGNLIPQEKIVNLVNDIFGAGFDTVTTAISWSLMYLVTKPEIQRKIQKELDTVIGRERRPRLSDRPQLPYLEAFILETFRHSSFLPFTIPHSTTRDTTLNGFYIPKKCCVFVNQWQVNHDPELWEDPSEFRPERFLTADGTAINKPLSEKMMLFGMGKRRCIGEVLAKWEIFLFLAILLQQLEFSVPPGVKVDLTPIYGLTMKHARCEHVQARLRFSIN
# Cannabinoid receptor 1 [6] = biological target: T2, Cannabinoid receptor 1 (Homo sapiens, UniProt P21554); assay: biochemical; type: cell-based, CHO
# [7] = Volume of distribution at steady state in C57BL/6J mouse at 5 mg/kg, iv or 20 mg/kg, po administered via gavage by LC-MS/MS analysis; type: ADME, organism-based; conditions: in vivo, read-out: Vdss
# [8] = Ratio of drug level in brain to plasma of diet-induced obese C57BL/6J mouse model at 30 mg/kg administered as daily dose measured at 2 hrs post last dose on day 5; type: ADME, organism-based; conditions: read-out: BPR
# Mus musculus [9] = assay: In vivo receptor occupancy at CB1 receptor in brain of diet induced obese C57BL/6J mouse model at 30 mg/kg, po administered as daily dose for 5 days measured 10 mins post last dose in presence of [3H]-CP-55940 relative to control; type: functional
# [10] = Drug uptake in plasma of wild type CF-1 mouse at 20 mg/kg, po measured at 2 hrs post last dose on day 1; type: ADME, organism-based
# [11] = Drug uptake in brain of MDR1a knockout CF-1 mouse at 20 mg/kg, po measured at 2 hrs post last dose on day 2; type: ADME, organism-based; conditions: in vivo
# [12] = Cmax in C57BL/6J mouse at 20 mg/kg, po administered via gavage by LC-MS/MS analysis; type: ADME, organism-based; set-up: dose 20 mg/kg, route oral; conditions: in vivo
# [13] = Ratio of drug level in brain to plasma of diet-induced obese C57BL/6J mouse model at 1 mg/kg, po administered as daily dose measured at 2 hrs post last dose on day 23; type: ADME, organism-based; conditions: read-out: BPR
# [14] = Ratio of drug level in brain to plasma of wild type CF-1 mouse at 20 mg/kg, po; type: ADME, organism-based; conditions: read-out: BPR
# [15] = Ratio of drug level in brain to plasma of MDR1a knockout CF-1 mouse at 20 mg/kg, po; type: ADME, organism-based; conditions: read-out: BPR
# [16] = Drug uptake in brain of diet-induced obese C57BL/6J mouse model at 30 mg/kg administered as daily dose measured at 2 hrs post last dose on day 5; type: ADME, organism-based; conditions: in vivo
# [17] = Half life in C57BL/6J mouse at 5 mg/kg, iv by LC-MS/MS analysis; type: ADME, organism-based; conditions: in vivo
# [18] = Ratio of drug level in C57BL/6J mouse brain to plasma at 20 mg/kg, po measured after 1 hr; type: ADME, organism-based; conditions: read-out: BPR
# [19] = Drug uptake in brain of wild type CF-1 mouse at 20 mg/kg, po measured at 2 hrs post last dose on day 2; type: ADME, organism-based; conditions: in vivo
# Mus musculus [20] = assay: Antiobesity activity in diet induced obese C57BL/6J mouse model assessed as decrease in food intake at 3 to 10 mg/kg, po administered as daily dose measured every day for 5 days and continuing every other day till day 17; type: functional, organism-based
# Cannabinoid receptor 1 [21] = biological target: T2, Cannabinoid receptor 1; assay: Inverse agonist activity at human CB1 receptor expressed in HEK293 cells assessed as inhibition of forskolin-induced cAMP accumulation after 30 mins by HTRF assay; type: functional, cell-based
# [22] = Tmax in C57BL/6J mouse at 5 mg/kg, iv or 20 mg/kg, po administered via gavage by LC-MS/MS analysis; type: ADME, organism-based; conditions: in vivo
# Cytochrome P450 2D6 = Cytochrome P450 2D6 (Homo sapiens, UniProt P10635); assay: Inhibition of CYP2D6 in human liver microsomes using dextromethorphan as substrate after 10 to 30 mins by LC/MS analysis; type: ADME
# [23] = Drug uptake in brain of diet-induced obese C57BL/6J mouse model at 3 mg/kg, po administered as daily dose measured at 2 hrs post last dose on day 2; type: ADME, organism-based; conditions: in vivo
# T2 sequence (P21554 whole entry): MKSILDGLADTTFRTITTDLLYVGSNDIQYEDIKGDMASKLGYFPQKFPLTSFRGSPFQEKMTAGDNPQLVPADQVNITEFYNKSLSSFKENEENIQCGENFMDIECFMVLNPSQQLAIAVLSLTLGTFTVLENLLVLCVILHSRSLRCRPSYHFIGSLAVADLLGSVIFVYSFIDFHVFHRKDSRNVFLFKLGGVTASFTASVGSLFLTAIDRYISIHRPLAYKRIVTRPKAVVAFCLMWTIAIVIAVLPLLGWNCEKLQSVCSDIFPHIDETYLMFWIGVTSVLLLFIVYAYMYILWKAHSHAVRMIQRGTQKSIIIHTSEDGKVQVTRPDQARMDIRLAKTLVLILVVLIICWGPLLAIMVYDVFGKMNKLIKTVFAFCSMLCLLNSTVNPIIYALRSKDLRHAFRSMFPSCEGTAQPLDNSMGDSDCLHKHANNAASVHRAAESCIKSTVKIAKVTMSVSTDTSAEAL
# Chain of Cytochrome P450 2D6 (P10635 whole entry): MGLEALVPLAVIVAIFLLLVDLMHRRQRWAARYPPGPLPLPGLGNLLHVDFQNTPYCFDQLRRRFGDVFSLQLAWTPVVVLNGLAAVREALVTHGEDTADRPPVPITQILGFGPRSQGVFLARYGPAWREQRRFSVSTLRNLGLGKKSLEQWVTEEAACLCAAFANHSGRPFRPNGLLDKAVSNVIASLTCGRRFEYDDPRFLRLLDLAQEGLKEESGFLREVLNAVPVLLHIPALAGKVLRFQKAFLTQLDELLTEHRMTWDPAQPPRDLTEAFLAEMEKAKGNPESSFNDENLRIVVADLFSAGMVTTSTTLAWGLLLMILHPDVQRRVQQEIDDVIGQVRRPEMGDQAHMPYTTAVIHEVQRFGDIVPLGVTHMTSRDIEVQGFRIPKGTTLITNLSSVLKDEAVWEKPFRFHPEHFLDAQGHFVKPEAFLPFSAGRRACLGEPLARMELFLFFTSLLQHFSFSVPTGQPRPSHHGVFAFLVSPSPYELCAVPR
compound,measurement,setting,value
O=c1cc(NC2CCN(S(=O)(=O)C(F)(F)F)CC2)c2cc(C(c3ccc(Cl)cc3)c3ccc(Cl)cc3)ccc2[nH]1,Drug uptake,[1],< 4 nmol/g
same,Kp at 4 h,[2],0.0099
same,Activity,Mus musculus [3],Active
same,concentration at 2 h,[4],0.843 µM
same,"remaining at 10 min, 1 µM",[5],100%
same,IC50,Cytochrome P450 1A2,> 10000 nM
same,IC50,Cannabinoid receptor 1 [6],1.3 nM
same,Vd,[7],0.456 L/kg
same,Kp at 2 h,[8],0.024
same,Occ,Mus musculus [9],71.6%
same,concentration at 2 h,[10],3.92 µM
same,Drug uptake,[11],3.49 nmol/g
same,Cmax,[12],3.7 µM
same,Kp at 2 h,[13],0.072
same,Kp,[14],0.027
same,Kp,[15],0.72
same,Drug uptake,[16],0.357 nmol/g
same,half-life,[17],6.97 h
same,Kp at 1 h,[18],0.0073
same,Drug uptake,[19],0.104 nmol/g
same,Activity,Mus musculus [20],Active
same,EC50,Cannabinoid receptor 1 [21],8.2 to 8.3 nM
same,Tmax,[22],2 h
same,IC50,Cytochrome P450 2D6,> 10000 nM
same,Drug uptake,[23],< 4 nmol/g
